From US20100130476A1, “COMPOUNDS THAT INDUCE PANCREATIC BETA-CELL EXPANSION” (The Scripps Research Institute, priority 2008, published 2010)

Assays:
[1] = tested on: Super (8×) TOPFlash reporter; experiment: Super (8×) TOPFlash Wnt reporter in HEK293 cells; format: cell-based
Protocol: (§1) (A) Chemical structures of 5-thiophene pyrimidines. […] Relative luminescence unit (RLU) was measured by CellTiter-Glo assay after 7-day incubation of growth-arrested R7T1 β cells with 1a, which was added at day 0 and refreshed at day 4; experiments were performed in quadruplicate. All data in this paper are presented as mean±SD, unless otherwise specified. (C) Dose-dependent effects of 1a on the activation of Super (8×) TOPFlash reporter. HEK293 cells transfected with Super (8×) TOPFlash reporter were treated with 1a at the indicated concentrations 24 h after transfection. Luciferase activity was measured 48 h after compound treatment. (D and E) The proliferative effect of 1a on rat primary β cells. (D) After incubation for 72 h with 2 μM 1a, replicating β cells were identified by double-immunofluorescence staining by using anti-C-peptide antibody to mark β cells (green) and antibody against Ki-67, a proliferation marker (red). Nuclear DNA was stained with DAPI (blue). (Scale bar, 10 μm.) (E) The percentage of Ki-67-positive cells of all C-peptide-positive cells, which corresponds to the fraction of replicating β cells. The number of proliferating primary β cells increased after incubation for 72 h in the presence of 2 μM 1a compared with DMSO control: 1a at 2 μM increases the replicating β cells ≈2-fold. (F) Compound 1a stimulates the translocation of β-catenin into the nucleus. Nuclear β-catenin accumulation (green arrows) was increased in 10 μM 1a-treated HEK293 cells; in DMSO-treated control cells, β-catenin staining is weak and appears to concentrate at the cell surface. […] CellTiter-Glo activity was measured 7 days after compound treatment.

GSK3-β = GSK3-β (Homo sapiens, UniProt P49841); experiment: GSK3-β inhibition; format: biochemical; conditions: preliminary investigation
MIN6 cells = experiment: MIN6 β-cell proliferation (BrdU incorporation assay); format: cell-based
Protocol: (§2) R7T1 β-cells are expanded in growth medium (DMEM with 15% horse serum and 2.5% FBS) in the presence of 10 μg/ml doxycycline. (3TC-tet cells are expanded in growth medium (DMEM with 15% horse serum and 2.5% FBS) in the absence of 10 μg/ml doxycycline. Hamster HIT-T15 β-cells are grown in F12 medium with 15% horse serum and 2.5% FBS. MIN6 cells are cultured in DMEM with 15% FBS. HEK293 cells are grown according to instructions from ATCC (http://www.atcc.org/).

65 kinases = experiment: Kinase profiling; format: biochemical; conditions: 5 μM; 65 kinases profiled
rat primary β cells = experiment: Primary β-cell proliferation assay, rat (C-peptide/Ki-67 double staining); format: cell-based
Protocol: Islets are isolated by the standard Liberase digestion method from the pancreata of adult Sprague-Dawley rats (200-250 g) (Liberase III; Roche Applied Science) and cultured in RPMI medium with 10% FBS. Briefly, 6 ml of ice-cold Liberase solution (Roche Applied Science) is injected into the pancreas via the common bile duct. After dissection, the pancreas is incubated for 35 minutes at 37° C. and then further dissociated by repeated pipetting using a 10-ml pipette. Islets are purified by Histopaque-1.077 (Sigma) density gradient centrifugation and are manually picked using a stereomicroscope. […] Human islets are obtained through the Juvenile Diabetes Research Foundation Islet Distribution Program by Islet Cell Resource Center in Minnesota, USA. The purity and viability of human islets are reported to be 30-70% and 50-70%, respectively. Human islets are cultured in CMRL medium containing 10% FBS.
Islets or single suspension cells are fixed with 4% formalin solution (Sigma) and stained by standard immuno-fluorescence techniques for C-peptide (anti-human C-peptide antibody from Raybiotech, Inc., and anti-rat C-peptide antibody from Linco, Inc.) and Ki-67 (anti-Ki-67 antibody from Abcam), a marker of proliferating cells. Nuclear DNA is stained with DAPI (Molecular Probes). At least 30,000 C-peptide positive cells are counted in each experiment, performed in triplicate. The images are taken on a Nikon Eclipse TE300 microscope with 200× magnification. Proliferating C-peptide/Ki-67 double positive β-cells are counted manually.

β-catenin = experiment: Nuclear β-catenin translocation in HEK293 cells; format: cell-based; conditions: 10 μM, versus DMSO, listed as 1a
Protocol: as §1, with “≈2-fold.” for “≈2-fold. (F) Compound 1a stimulates the translocation of β-catenin into the nucleus. Nuclear β-catenin accumulation (green arrows) was increased in 10 μM 1a-treated HEK293 cells; in DMSO-treated control cells, β-catenin staining is weak and appears to concentrate at the cell surface.”

[2] = tested on: growth-arrested R7T1 β cells; experiment: R7T1 β-cell proliferation, CellTiter Glo assay (high-throughput screen and follow-up); format: cell-based, mouse
Protocol: as §2
R7T1 β-cells are expanded in large quantities in growth medium in the presence of 10 μg/ml doxycycline and then are growth arrested by removal of doxycycline for one week. For the primary screen, growth-arrested cells are plated onto 384- or 1536-well plates in growth medium without doxycycline at a density of 4000 cells/well in 384-well plate or 1000 cells/well in 1536-well plate in an automated high-throughput screening platform (designated as Day 0). […] For data analysis, the median of a plate is calculated and the activity of each well is the signal/median of the plate. A signal in any well over 1.5 of the median is regarded as a primary hit. For the reconfirmation screen, growth-arrested R7T1 cells are plated onto 384-well plates and screened against all primary hits in quadruplicate. To eliminate tetracycline mimetics among all reconfirmed primary hits, βTC-tet cells are plated onto 384-well plates at a density of 2000 cells/well in growth medium in the presence of 10 μg/ml doxycycline, and 1.25 μM compound is added after overnight incubation and refreshed 4 days later. The effects on β-cell replication are then determined at Day 8 using the CellTiter Glo assay system. Any compound that increases the readings more than 1.5 fold is regarded as a hit.
SV40 T antigen (TAg) oncoprotein under the control of the Tet-On system was used to immortalize mouse β cells so that these engineered β cells proliferate when TAg is induced in the presence of tetracycline (Tet), but undergo growth arrest upon withdrawal of Tet (see, Efrat S, et al., Proc. Natl. Acad. Sci. USA 92:3576-3580 (1995); Fleischer N, et al, Diabetes 47:1419-1425 (1998); and Milo-Landesman D, et al., Cell Transplant. 10:645-650 (2001)). Although not a true mimic of in vivo quiescent β cells, this system should allow us to identify small molecules that are able to induce reentry into cell cycle and proliferation of growth-arrested cells. Indeed, these engineered cells express high levels of β-cell signature markers, including insulin 1, insulin 2, and Pdx1, and are able to secrete insulin and restore and maintain euglycemia in STZ-treated diabetic mice when induced to growth arrest and transplanted (see, Efrat S, et al., supra; and Milo-Landesman D, et al., supra). A total of ≈850,000 compounds were screened with an automated high-throughput screening platform for their ability to induce the proliferation of growth-arrested β cells in either a 384- or 1,536-well plate format. In the primary screen, proliferation was assayed by using a luminescent assay measuring intracellular ATP content, which is directly proportional to viable cell number (see, Materials and Methods). To rule out any possible Tet mimetics that induce the proliferation of β cells through the induction of SV40 TAg expression, the Tet-Off immortalized β-cell line βTC-Tet was used for a counterscreen.

[3] = tested on: Wnt reporter whose β-catenin/TCF binding sites are mutated; experiment: Mutated Wnt reporter; format: cell-based; conditions: data not shown
HIT-T15 β cells = experiment: HIT-T15 β-cell proliferation (BrdU incorporation assay); format: cell-based, Hamster
Protocol: as §2

GSK3-β, sequence (P49841 whole entry, species assumed): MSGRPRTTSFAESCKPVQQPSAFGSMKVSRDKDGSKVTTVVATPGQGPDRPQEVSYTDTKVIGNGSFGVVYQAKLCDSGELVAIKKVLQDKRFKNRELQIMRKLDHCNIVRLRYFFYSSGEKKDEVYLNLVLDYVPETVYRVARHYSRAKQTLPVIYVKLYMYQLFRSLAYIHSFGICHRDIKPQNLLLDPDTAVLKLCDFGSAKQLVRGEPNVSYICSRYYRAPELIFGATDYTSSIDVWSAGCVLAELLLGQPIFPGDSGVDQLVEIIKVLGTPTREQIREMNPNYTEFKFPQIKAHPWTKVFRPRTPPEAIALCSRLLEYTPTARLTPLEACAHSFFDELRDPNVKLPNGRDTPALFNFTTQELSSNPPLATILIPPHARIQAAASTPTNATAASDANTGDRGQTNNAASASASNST

`CN1CCN(C(=O)c2ccc(Nc3nccc(-c4cccs4)n3)cc2Cl)CC1` [Example 1, (2-chloro-4-(4-(thiophen-2-yl)pyrimidin-2-ylamino)phenyl)(4-methylpiperazin-1-yl)methanone] was tested, and the “activation of the Wnt reporter compared with DMSO” value ([1]; 10 μM) was 15 fold, the EC50 ([1]; Homo sapiens, HEK293 cells, luciferase 48 h after compound treatment, read-out: EC50 of induction of Super (8×) TOPFlash reporter) was ~1250 nM and the IC50 (GSK3-β) was 64 nM. The “proliferation of MIN6 β cells (in words)” value (MIN6 cells) was “promote the proliferation”, the “kinases profiled that were inhibited by >75%” value (65 kinases) was 7 of 65 and the “increase in replicating primary rat β cells (Ki-67/C-peptide)” value (rat primary β cells; 2 μM, 72 h, compared with DMSO) was “≈ 2 fold”. The “increase in rat C-peptide/Ki-67 double positive β-cells” value (rat primary β cells; 72 hours (3 days), concentration not given) was 2 fold, the “nuclear β-catenin accumulation” value (β-catenin) was “Increased nuclear β-catenin accumulation” and the EC50 ([2]; Mus musculus, 168 h, CellTiter-Glo after 7-day incubation, read-out: EC50 of replication of growth-arrested R7T1 β cells) was ~1100 nM. The “expansion of the pancreatic β-cell population” value ([2]; high-throughput screen, CellTiter Glo at Day 8, screen concentration 1.25 μM) was 2.5 fold, the “activity on mutated Wnt reporter” value [3] was “no activity” and the “proliferation of HIT-T15 β cells (in words)” value (HIT-T15 β cells) was “promote the proliferation”.
